Each block holds one molecule with its values, some of them ahead of it.
Columns and labels:
STC-1 cells [1] = experiment: GLP-1 secretion in STC-1 enteroendocrine cells (ELISA); format: cell-based
Protocol: For the experiments summarized in FIG. 51 STC-1 cells were incubated with vehicle (DMSO), 9-PAHSA, 5-PAHSA or 9-OAHSA at the indicated concentrations or lineolic acid (100 uM) as a positive control. Media was harvested and GLP-1 was measured by ELISA.
For the experiments summarized in FIG. 52, the same protocol as described for FIG. 51 was used, except in this experiment a time course was performed. For both FIG. 51 and FIG. 52, for GLP-1 secretion STC1 cells were washed 3× with serum free culture media followed by stimulation with FAHFAs or vehicle at the indicated concentrations and timepoints. Levels of active GLP-1 were measured by ELISA.

GPR120 = biological target: T1, GPR120 (Homo sapiens, UniProt Q5NUL3); experiment: PATHHUNTER beta-Arrestin GPCR assay; format: cell-based
T1 sequence (Q5NUL3 1-361): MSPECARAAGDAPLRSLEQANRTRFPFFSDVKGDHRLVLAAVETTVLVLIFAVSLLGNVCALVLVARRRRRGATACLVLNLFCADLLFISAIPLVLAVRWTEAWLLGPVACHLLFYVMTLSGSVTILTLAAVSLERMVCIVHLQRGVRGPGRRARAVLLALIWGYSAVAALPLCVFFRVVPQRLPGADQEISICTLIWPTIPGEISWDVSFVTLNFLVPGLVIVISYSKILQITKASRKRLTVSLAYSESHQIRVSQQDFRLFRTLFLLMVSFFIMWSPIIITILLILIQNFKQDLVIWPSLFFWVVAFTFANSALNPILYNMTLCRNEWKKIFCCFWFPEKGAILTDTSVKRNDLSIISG
Excerpt: For the experiments summarized in FIGS. 53-55, the fragment based GPCR assay from DiscoveRx (PATHHUNTER® β-Arrestin assay) was used to as per manufacturer's instructions to determine activation of specific GPCRs as indicated in FIGS. 53-55.

STC-1 cells [2] = experiment: ERK phosphorylation in STC-1 cells (immunoblot); format: cell-based; conditions: 15 minutes
Protocol: For the experiments summarized in FIG. 50, STC-1 cells were incubated with 9-PAHSA, 5-PAHSA or 9-OAHSA at the indicated concentrations. Cells were harvested and lysed and proteins were separated by SDS PAGE and transferred onto nitrocellulose filters. The phosphorylation of ERK and the amount of total ERK was determined by immunoblotting with antibodies specific for total or phosphor-ERK. DMSO was the control. For ERK phosphorylation, cells were serum deprived overnight and stimulated with FAHFAs or vehicle as indicated for 15 minutes followed by lysis in RIPA buffer and analysis by SDS-PAGE

[3] = test system: FA-CoA:HFA acyltransferase activity; experiment: FAHFA biosynthesis (FA-CoA:HFA acyltransferase) assay in tissue lysates; format: biochemical; conditions: 10 uM 9-HSA and oleoyl-CoA, increasing doses
Protocol: In order to understand the biology of the new FAHFA lipid class more completely, experiments were performed to identify an enzyme capable of synthesizing FAHFAs as well. By structural analogy to other lipid metabolites such as diacylglycerols or wax esters, it was hypothesized that hydroxy fatty acids were the immediate precursors to FAHFAs. Candidate acyltransferases were identified by reacting the common biochemical acyl carrier, oleoyl-CoA, with 9-hydroxystearic acid (9-HSA) in the presence of cell lysates or tissue membrane lysates to form 9-OAHSA (Scheme 2; FIG. 61 ).
After first establishing that FA-CoA:HFA acyltransferase activity was membrane-localized in liver (not shown), we isolated membrane fractions from liver or WAT tissue lysate by ultracentrifugation, then resuspended the pellets in PBS buffer and diluted to 1 mg/ml protein concentration. […] The reaction mixtures were extracted with ethyl acetate, concentrated, and reconstituted in 1:1 chloroform:methanol for MS analysis. Formation of 9-OAHSA was measured by MS/MS, with which the appearance of the parent ion m/z 563 was monitored.
In light of the above results acyltransferase families that have been reported to have a membrane-bound localization and to have the ability to conjugate FA-CoA to a hydrophobic alcohol were targeted. […]

HepG2 cells = experiment: PPAR agonist studies, FAHFA levels in HepG2 cells; format: cell-based; conditions: 0.5 uM and 1.0 uM, 48 hr, cells and media
Protocol: In this example, HepG2 cells were seeded in 6-well plates. At 80% confluence, cells were treated with two different concentrations [0.5 uM and 1.0 uM] of an agonist of PPAR α (WY14643), δ (CAY10592), or γ (Pioglitazone) for 48 hr in HepG2 media with 2.5% FBS. At the end of incubation, 500 uL of media was collected and the cells were collected in PBS for lipid extraction. Lipids were extracted from both media and cells to quantitate the FAHFA levels by Mass Spec. The results are summarized in FIGS. 33 and 34 for the cells and media, respectively.
HepG2 cells were seeded in 6-well plate. At 80% confluence, cells were treated with two different concentrations [0.5 μM and 1.0 μM] of PPAR α/δ/γ agonists for 48 h in HepG2 media containing 2.5% fetal bovine serum (PPAR α agonist—WY14643; PPAR δ agonist—CAY10592; PPAR γ agonist—Pioglitazone). At the end of incubation, 500 μL of media and the cells were collected in PBS. Lipids were extracted as per Folch Method from both media and cells to quantitate the FAHFA levels by Mass Spec. Briefly, chloroform and methanol were added to the media or cells in 2:1 ratio and sonicated for 2-3 min and centrifuged at 3000 rpm for 10 min at 4° C. […] Calculated volume of chloroform is added to the dissolve the lipids and 2 μL of injection volume was used to analyze FAHFAs through Mass spec. […]

[4] = test system: carboxyl ester lipase (CEL)
[5] = test system: FAHFA hydrolysis activity in pancreas membrane lysate; experiment: FAHFA hydrolysis activity assay, pancreas membrane lysate; conditions: pancreas lysate
[6] = test system: FAHFA hydrolysis activity in liver lysate

SMILES: CCCCCCCC/C=C\CCCCCCCC(=O)OC(CCCCCCCCC)CCCCCCCC(=O)O (stereo not shown) [9-OAHSA]
GLP-1 secretion (STC-1 cells [1]): induce GLP-1 secretion
activation of GPR120 (GPR120): but not 9OAHSA, activate GPR120
ERK phosphorylation (STC-1 cells [2]): induce ERK phosphorylation

SMILES: O=C(O)COc1ccc(SCC=C(c2ccc(Br)cc2)c2ccc(Br)cc2)cc1Cl [CAY10592]
FAHFA production in liver cells (HepG2 cells): stimulate FAHFA production

SMILES: C[C@H](CCC(=O)NCCS(=O)(=O)O)[C@H]1CC[C@H]2[C@@H]3[C@H](O)C[C@@H]4C[C@H](O)CC[C@]4(C)[C@H]3C[C@H](O)[C@]12C [NaTC, sodium taurocholate, reference compound]
effect on FAHFA hydrolysis [4]: enhanced
effect on FAHFA hydrolysis [5]: markedly increased
effect on FAHFA hydrolysis [6]: not enhanced

SMILES: Cc1cccc(Nc2cc(Cl)nc(SCC(=O)O)n2)c1C [WY14643]
FAHFA production in liver cells (HepG2 cells): stimulate FAHFA production

The remaining lines, values ahead:

9-OAHSA levels (FAHFA production) [3]: no change
SMILES: O=C(Nc1ccccc1)Nc1ccc(-c2ccc(C(=O)[C@@H]3CCC[C@H]3C(=O)O)cc2)cc1 [A922500]

9-OAHSA levels (FAHFA production) [3]: no change
SMILES: CCCCCCCCCCC(C)(C)C(=O)Nc1c(OC)cc(OC)cc1OC [CI976]

Reference: US11174216B2, “Lipids that increase insulin sensitivity and methods of using the same” (Beth Israel Deaconess Medical Center, Inc., priority 2012, dated 2021)
